Laboratory results reported in article PMC9046089, “CCNE1 amplification is synthetic lethal with PKMYT1 kinase inhibition” (Nature, 2022).
Values joined by “and” are separate entries in the source; they are usually repeats but may differ in a detail not shown here. Equal entries are not always repeated. Where two headings read alike, the source gives them in different places. Values belong to the molecule of their own block, whether it stands above or below them.

How the values were obtained:
human recombinant PKMYT1 = biological target: T1, human recombinant PKMYT1 (Homo sapiens, UniProt Q99640); assay: ADP-Glo kinase assay of PKMYT1 catalytic activity; type: biochemical
T1 construct: full-length human GST–PKMYT1 recombinant protein; GST (N); purchased Thermo Fisher Scientific A33387
T1 sequence (Q99640 1-499): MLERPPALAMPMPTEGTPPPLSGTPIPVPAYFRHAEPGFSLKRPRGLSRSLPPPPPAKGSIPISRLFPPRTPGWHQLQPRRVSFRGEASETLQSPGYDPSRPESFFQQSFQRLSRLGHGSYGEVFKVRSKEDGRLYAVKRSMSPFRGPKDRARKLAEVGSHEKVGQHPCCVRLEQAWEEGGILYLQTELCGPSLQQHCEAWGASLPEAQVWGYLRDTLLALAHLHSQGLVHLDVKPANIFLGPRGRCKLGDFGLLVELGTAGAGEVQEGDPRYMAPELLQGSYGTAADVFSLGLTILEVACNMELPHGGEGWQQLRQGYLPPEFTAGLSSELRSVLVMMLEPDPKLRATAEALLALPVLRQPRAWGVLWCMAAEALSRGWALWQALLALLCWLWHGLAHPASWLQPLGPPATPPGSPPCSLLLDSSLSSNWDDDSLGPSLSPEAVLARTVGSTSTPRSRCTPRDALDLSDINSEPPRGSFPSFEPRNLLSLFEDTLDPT

CDK1 = assay: Immune complex histone H1 kinase assay, IP-CDK1, FT282 CCNE1-high cells; type: cell-based; conditions: 24 h; for 32P-labelled histone H1 band intensity, IP-CDK1 kinase assay: 0 nM = 1
Method: (§1) Protein concentration was determined by Bradford assay (Thermo Fisher Scientific cat. no. 1856209). For immunoprecipitation of kinases, 200 μg of extract was diluted in 750 μl EBN buffer and 10 μg of CDK1 or CDK2 primary antibody agarose bead conjugates were added to the extract and rotated at 4 °C overnight. Immunoprecipitates were pelleted by centrifugation at 2,500g at 4 °C for 5 min and washed 2× in 750 μl EBN followed by 1 ml EB (80 mM β-glycerol phosphate, 15 mM MgCl2, 20 mM EGTA, 1 mg ml^−1 ovalbumin). After the final wash, the immunoprecipitates were resuspended in 500 μl EB and split into two samples. One sample was used for immunoblot analysis and the other used for kinase assays. Following removal of the final wash, immunoprecipitates were resuspended in 11 μl histone H1 kinase assay buffer (80 mM β-glycerol phosphate, 15 mM MgCl2, 20 mM EGTA, 1 mg ml^−1 ovalbumin, 10 mM DTT, 0.15 μg μl^−1 histone H1 (Sigma-Aldrich, cat. no. H1917), 22 μM ATP, 0.05 μCi μl^−1 γ^32P-ATP (Perkin Elmer NEG502A250UC), pH 7.3) and incubated at room temperature for 30 min. Reactions were quenched by addition of 5 μl 6× sample buffer (60% glycerol, 6% SDS, 0.03% bromophenol blue, 1,500 mM Tris-Cl pH 6.8, 60 mM DTT) and resolved by SDS–PAGE. Gels were exposed to a phosphor imaging screen for 1–2 d and imaged using a Typhoon FLA 9500 (GE Healthcare Life Sciences). 32P-H1 band intensity was quantified using ImageJ v2.0.0.

CDK2 = assay: Immune complex histone H1 kinase assay, IP-CDK2, FT282 CCNE1-high cells; type: cell-based; conditions: 24 h
Method: as §1, with “Gels were exposed to a phosphor imaging screen for 1–2 d and imaged using a Typhoon FLA 9500 (GE Healthcare Life Sciences).” left out

COV362 cells = assay: Cell proliferation assay (Incucyte growth inhibition); type: cell-based; conditions: three replicates
Text: (§2) Per cent confluence relative to a non-treated control was used to evaluate growth inhibition induced by test compounds. […] (https://synergyfinder.fimm.fi).

DOTC24510 cells = assay: as above; type: cell-based; conditions: three replicates
Text: as §2

KYSE30 cells = assay: as above; type: cell-based; conditions: three replicates
Text: as §2

NUGC3 cells = assay: as above; type: cell-based; conditions: three replicates
Text: as §2

OVCAR3 cells = assay: as above; type: cell-based; conditions: three replicates
Text: as §2

[1] = test system: RPE1-hTERT TP53-/- Cas9 CCNE1-high cells; assay: as above; type: cell-based
Text: as §2

[2] = test system: RPE1-hTERT TP53-/- Cas9 parental cells; assay: as above; type: cell-based
Text: as §2

SNU8 cells = assay: as above; type: cell-based; conditions: three replicates
Text: as §2

SUM149PT cells = assay: as above; type: cell-based; conditions: three replicates
Text: as §2

TOV112D cells = assay: as above; type: cell-based; conditions: three replicates
Text: as §2

HCC1569 cells = assay: Cell proliferation assay (Incucyte growth inhibition, synergy); type: cell-based; conditions: three replicates
Text: as §2

[3] = read-out: RP-6306 EC50 (mM) RPE1 CCNE1 (C2), growth inhibition, three replicates
[4] = read-out: RP-6306 EC50 (mM) RPE1 WT, growth inhibition, three replicates

effect on PKMYT1 catalytic activity (human recombinant PKMYT1; ADP-Glo dose-response): no effect
PKMYT1 catalytic activity, ADP-Glo signal (human recombinant PKMYT1; c0 (log10 concentration, head mM) 1): 13700
PKMYT1 catalytic activity, ADP-Glo signal (human recombinant PKMYT1; c0 (log10 concentration, head mM) -0.57777): 15400
PKMYT1 catalytic activity, ADP-Glo signal (human recombinant PKMYT1; c0 (log10 concentration, head mM) -2.18442): 16550
PKMYT1 catalytic activity, ADP-Glo signal (human recombinant PKMYT1; c0 (log10 concentration, head mM) -3.8365): 15000
PKMYT1 catalytic activity, ADP-Glo signal (human recombinant PKMYT1; c0 (log10 concentration, head mM) -5.64386): 14750
PKMYT1 catalytic activity, ADP-Glo signal (human recombinant PKMYT1; c0 (log10 concentration, head mM) -6.93016): 14350
PKMYT1 catalytic activity, ADP-Glo signal (human recombinant PKMYT1; c0 (log10 concentration, head mM) -8.53282): 14150
PKMYT1 catalytic activity, ADP-Glo signal (human recombinant PKMYT1; c0 (log10 concentration, head mM) -10.0955): 14900
PKMYT1 catalytic activity, ADP-Glo signal (human recombinant PKMYT1; c0 (log10 concentration, head mM) -11.6789): 15800
PKMYT1 catalytic activity, ADP-Glo signal (human recombinant PKMYT1; c0 (log10 concentration, head mM) -13.2591): 15500
Structure (SMILES): Cc1cnc2c(c1)c(C(N)=O)c(N)n2-c1c(C)cccc1C [RP-6421]

Structure (SMILES): C=CCn1c(=O)c2cnc(Nc3ccc(N4CCN(C)CC4)cc3)nc2n1-c1cccc(C(C)(C)O)n1 [AZD-1775]
32P-labelled histone H1 band intensity, IP-CDK1 kinase assay (CDK1; AZD-1775 250 nM): 1.298 and 1.203 and 0.7824
32P-labelled histone H1 band intensity, IP-CDK1 kinase assay (CDK1; AZD-1775 500 nM): 1.804 and 1.271 and 1.266
32P-labelled histone H1 band intensity, IP-CDK1 kinase assay (CDK1; AZD-1775 1000 nM): 2.54 and 1.785 and 1.69
CDK1 kinase activity (CDK1; FT282 CCNE1-high cells): activation of both kinases
CDK2 kinase activity (CDK2): activation of both kinases
EC50 (COV362 cells; COV362, growth inhibition): 49 nM
EC50 (DOTC24510 cells; Homo sapiens, DoTc2-4510, growth inhibition): 38 nM
EC50 (DOTC24510 cells; growth inhibition): 42 nM and 55 nM
EC50 (KYSE30 cells; Homo sapiens, KYSE-30, growth inhibition): 437 nM
EC50 (KYSE30 cells; growth inhibition): 482 nM and 541 nM
EC50 (NUGC3 cells; Homo sapiens, NUGC-3, growth inhibition): 212 nM
EC50 (NUGC3 cells; growth inhibition): 239 nM
EC50 (OVCAR3 cells; Homo sapiens, OVCAR-3, growth inhibition): 94 nM
EC50 (OVCAR3 cells; growth inhibition): 78 nM and 98 nM
EC50 ([1]; Homo sapiens, RPE-1, read-out: RP-6306 EC50 (mM) RPE1 CCNE1 (C2), growth inhibition, three replicates): 0.000113 mM
EC50 [1, 3]: 0.00015 mM and 0.000111 mM
EC50 ([2]; Homo sapiens, RPE-1, read-out: RP-6306 EC50 (mM) RPE1 WT, growth inhibition, three replicates): 172 nM
EC50 [2, 4]: 159 nM and 154 nM
EC50 (SNU8 cells): 98 nM and 114 nM and 97 nM
EC50 (SUM149PT cells; Homo sapiens): 211 nM
EC50 (SUM149PT cells): 232 nM and 196 nM
EC50 (TOV112D cells; Homo sapiens): 444 nM
EC50 (TOV112D cells): 390 nM and 454 nM
EC50 (HCC1569 cells; Homo sapiens, HCC1569, growth inhibition): 54 nM
EC50 (HCC1569 cells; growth inhibition): 51 nM and 56 nM

Structure (SMILES): C[C@@]1(O)CCC[C@H]1n1c(=O)c(C(F)F)cc2cnc(NC3CCN(S(C)(=O)=O)CC3)nc21 [PF-06873600]
EC50 (COV362 cells; growth inhibition): 94 nM and 93 nM
EC50 (DOTC24510 cells; growth inhibition): 56 nM and 41 nM and 28 nM
EC50 (KYSE30 cells; growth inhibition): 32 nM and 22 nM and 29 nM
EC50 (NUGC3 cells; growth inhibition): 28 nM and 25 nM and 22 nM
EC50 (OVCAR3 cells; growth inhibition): 46 nM and 37 nM and 35 nM
EC50 [1, 3]: 0.000125 mM
EC50 [2, 4]: 98 nM and 79 nM and 106 nM
EC50 (SNU8 cells): 21 nM and 50 nM and 43 nM
EC50 (SUM149PT cells): 75 nM and 85 nM and 80 nM
EC50 (TOV112D cells): 43 nM and 47 nM and 42 nM
EC50 (HCC1569 cells; growth inhibition): 37 nM and 41 nM and 40 nM
